# Publication PMC4389225, “Triaminopyrimidine is a fast-killing and long-acting antimalarial clinical candidate” (Nature Communications, 2015)
# Several values for one entry are separate records, joined by “and”; a condition that tells them apart may be missing. Identical values can stand only once. Like-named read-outs stand apart in the source and are kept apart here.
# Key:
# Pf 7G8 = assay: microbe, parasite or virus in culture; type: cell-based; conditions: Plasmodium falciparum
# From the text: (§1) tested in duplicate from two independent experiments using a SYBR-Green based assay2.
# (§2) (1 picture or pasted object on this page, not shown here)
# Pf SB1 = assay: microbe, parasite or virus in culture; type: cell-based; conditions: Plasmodium falciparum
# From the text: as §1, §2
# Pf DD2 = assay: microbe, parasite or virus in culture; type: cell-based; conditions: Plasmodium falciparum
# From the text: as §1, §2
# Pf K1 = assay: microbe, parasite or virus in culture; type: cell-based; conditions: Plasmodium falciparum
# From the text: as §1, §2
# Pf W2 = assay: microbe, parasite or virus in culture; type: cell-based; conditions: Plasmodium falciparum
# From the text: as §1, §2
# Pf NF54 = assay: microbe, parasite or virus in culture; type: cell-based; conditions: Plasmodium falciparum
# From the text: as §1, §2
# Dd2-PfCRT = assay: SYBR green growth assay, Dd2-PfCRT mutant; type: cell-based, P. falciparum
# Procedure: (§3) To eliminate overlapping mode of action with known targets, cross-resistance testing of representative TAPs against drug-resistant lines with well-characterized mutations in Pf dihydroorotate dehydrogenase, Pf heat-shock protein 90, Pf chloroquine resistance transporter[25] or Pf cytochrome b reduction site[26] was performed. […] Assays were carried out in 384-well format with three technical replicates within an assay day and biological replicates carried out on three different assay days to assign a final EC50.
# (§4) A representative TAP (compound 6) was tested for its activity against a panel of P. falciparum strains known to harbour mutations conferring resistance to antimalarial agents under development. Artesunate and amodiaquine were included as additional control […]
# (§5) Values are the means ± standard deviation derived from three independent assays performed
# Dd2-CYTbQi = assay: SYBR green growth assay, Dd2-CYTbQi mutant; type: cell-based, P. falciparum
# Procedure: as §3, §4, §5
# Dd2-6R F2 B5 = assay: SYBR green growth assay, Dd2-6R F2 B5; conditions: for IC50: Plasmodium falciparum, DD2
# From the text: (§7) The drug was then washed off and the parasites were allowed to recover in normal growth media.
# Dd2 [1] = assay: SYBR green growth assay, Dd2 (parental); type: cell-based, P. falciparum; conditions: mean ± SD
# Procedure: as §3, §4, §5
# Dd2-6R F4 D4 = assay: SYBR green growth assay, Dd2-6R F4 D4; conditions: Plasmodium falciparum
# From the text: as §7
# Dd2-HSP90 = assay: microbe, parasite or virus in culture; type: cell-based, P. falciparum
# Procedure: as §3, §4, §5
# Dd2-6R F2 C5 = assay: SYBR green growth assay, Dd2-6R F2 C5; conditions: Plasmodium falciparum
# From the text: as §7
# Dd2-6R F4 G7 = assay: SYBR green growth assay, Dd2-6R F4 G7; conditions: Plasmodium falciparum
# From the text: as §7
# Dd2-DHODH = assay: SYBR green growth assay, Dd2-DHODH mutant; type: cell-based, P. falciparum
# Procedure: as §3, §4, §5
# Dd2-6R F2 D8 = assay: SYBR green growth assay, Dd2-6R F2 D8; conditions: Plasmodium falciparum
# From the text: as §7
# [2] = target: T1, acetylcholine esterase (AChE) (Homo sapiens, UniProt P22303); assay: AChE enzyme activity assay (CEREP); type: biochemical; conditions: read-out: AChE IC50
# T1 construct: purchased CEREP, France (external assay service) 0363
# Procedure: An in vitro pharmacological profiling panel was specifically designed for the detection of potential high- risk clinical adverse drug reactions. The panel comprised of 26 diverse targets (6 enzymes, 2 transporters, 9 G-protein-coupled receptors (GPCRs), 5 ion channels along with hERG, M2, alpha1A and AchE) and was conduced externally by CEREP, France […]. […] Detailed methodology for in vitro pharmacological profiling assays provided by CEREP can be found at http://www.cerep.fr, with specific reference to the AChE (cat. no. 0363), Muscarinic M1 receptor (cat. no. 0091) and Adrenergic α1A receptor (cat. no. 2338) assays. For enzyme and kinase assays, the results were expressed as a percent inhibition of control-specific activity obtained in the presence of the test compound. The IC50 values (concentration causing a half-maximal inhibition of control-specific activity) and Hill coefficients (nH) were determined by nonlinear regression analysis of the inhibition/concentration–response curves using Hill equation curve fitting as described earlier.
# hERG = target: T2, hERG (Homo sapiens, UniProt Q12809); assay: electrophysiology-based hERG assay using IonWorks HT (CHO cells); type: cell-based; conditions: hERG IC50
# T2 construct: expressed in transfected cells; host or cells: CHO cells
# Procedure: hERG IC50 was determined in an electrophysiology-based hERG assay using IonWorks HT (CHO cells) as described earlier.
# Dd2 bc-1 ELQ-300 = assay: [3H]-hypoxanthine incorporation assay, Dd2 bc-1 ELQ-300 resistant; type: cell-based, Plasmodium falciparum; conditions: Dd2 bc-1 ELQ-300; read-out: IC50
# Procedure: (§6) Supplementary Table 3: Compound 9 and 12 retain their activity against Pf strains harbouring mutations to novel antimalarial agents in clinical development. Compound 9 and 12 were tested for their antiplasmodial activity against a panel of Pf strains known to harbour mutations conferring resistance to novel agents under clinical development. Parasite growth inhibition is measured using the [3H]-hypoxanthine incorporation assay. IC50s are established for each strain (n ≥2) and compared to the IC50 of Dd2 (standard pan-resistant […]
# Dd2 [3] = assay: [3H]-hypoxanthine incorporation assay, Dd2; type: cell-based, Plasmodium falciparum
# Procedure: 9 and 12 were tested for their antiplasmodial activity against a panel of Pf strains known to harbour mutations conferring resistance to novel agents under clinical development. Parasite growth inhibition is measured using the [3H]-hypoxanthine incorporation assay. IC50s are established for each strain (n ≥2) and compared to the IC50 of Dd2 (standard pan-resistant
# Dd2 DHODH DSM265 = assay: [3H]-hypoxanthine incorporation assay, Dd2 DHODH DSM265 resistant; type: cell-based; conditions: Plasmodium falciparum
# Procedure: as §6
# Dd2 PfATP4 NITD609 = assay: [3H]-hypoxanthine incorporation assay, Dd2 PfATP4 NITD609 resistant; type: cell-based; conditions: Plasmodium falciparum
# Procedure: as §6
# [4] = Plasmodium falciparum, DD2, Dd2, Supplementary Table 2
# [5] = Plasmodium falciparum, DD2, Dd2 parental, Supplementary Table 13
# T1 sequence (P22303 32-614): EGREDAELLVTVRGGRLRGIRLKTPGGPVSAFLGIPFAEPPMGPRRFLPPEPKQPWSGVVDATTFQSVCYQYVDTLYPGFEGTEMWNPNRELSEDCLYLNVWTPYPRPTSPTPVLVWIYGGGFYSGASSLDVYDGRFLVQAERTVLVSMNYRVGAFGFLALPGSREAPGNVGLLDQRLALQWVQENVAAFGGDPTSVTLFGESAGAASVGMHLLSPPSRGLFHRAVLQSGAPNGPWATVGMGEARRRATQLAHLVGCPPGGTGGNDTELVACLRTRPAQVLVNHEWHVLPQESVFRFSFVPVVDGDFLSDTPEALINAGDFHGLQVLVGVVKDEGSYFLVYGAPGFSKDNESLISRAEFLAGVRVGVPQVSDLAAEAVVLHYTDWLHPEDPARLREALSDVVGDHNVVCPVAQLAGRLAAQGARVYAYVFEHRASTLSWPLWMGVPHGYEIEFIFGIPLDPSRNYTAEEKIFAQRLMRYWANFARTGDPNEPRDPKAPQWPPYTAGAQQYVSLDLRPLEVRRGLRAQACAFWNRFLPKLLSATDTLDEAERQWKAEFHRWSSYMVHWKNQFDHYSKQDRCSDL
# T2 sequence (Q12809 whole entry): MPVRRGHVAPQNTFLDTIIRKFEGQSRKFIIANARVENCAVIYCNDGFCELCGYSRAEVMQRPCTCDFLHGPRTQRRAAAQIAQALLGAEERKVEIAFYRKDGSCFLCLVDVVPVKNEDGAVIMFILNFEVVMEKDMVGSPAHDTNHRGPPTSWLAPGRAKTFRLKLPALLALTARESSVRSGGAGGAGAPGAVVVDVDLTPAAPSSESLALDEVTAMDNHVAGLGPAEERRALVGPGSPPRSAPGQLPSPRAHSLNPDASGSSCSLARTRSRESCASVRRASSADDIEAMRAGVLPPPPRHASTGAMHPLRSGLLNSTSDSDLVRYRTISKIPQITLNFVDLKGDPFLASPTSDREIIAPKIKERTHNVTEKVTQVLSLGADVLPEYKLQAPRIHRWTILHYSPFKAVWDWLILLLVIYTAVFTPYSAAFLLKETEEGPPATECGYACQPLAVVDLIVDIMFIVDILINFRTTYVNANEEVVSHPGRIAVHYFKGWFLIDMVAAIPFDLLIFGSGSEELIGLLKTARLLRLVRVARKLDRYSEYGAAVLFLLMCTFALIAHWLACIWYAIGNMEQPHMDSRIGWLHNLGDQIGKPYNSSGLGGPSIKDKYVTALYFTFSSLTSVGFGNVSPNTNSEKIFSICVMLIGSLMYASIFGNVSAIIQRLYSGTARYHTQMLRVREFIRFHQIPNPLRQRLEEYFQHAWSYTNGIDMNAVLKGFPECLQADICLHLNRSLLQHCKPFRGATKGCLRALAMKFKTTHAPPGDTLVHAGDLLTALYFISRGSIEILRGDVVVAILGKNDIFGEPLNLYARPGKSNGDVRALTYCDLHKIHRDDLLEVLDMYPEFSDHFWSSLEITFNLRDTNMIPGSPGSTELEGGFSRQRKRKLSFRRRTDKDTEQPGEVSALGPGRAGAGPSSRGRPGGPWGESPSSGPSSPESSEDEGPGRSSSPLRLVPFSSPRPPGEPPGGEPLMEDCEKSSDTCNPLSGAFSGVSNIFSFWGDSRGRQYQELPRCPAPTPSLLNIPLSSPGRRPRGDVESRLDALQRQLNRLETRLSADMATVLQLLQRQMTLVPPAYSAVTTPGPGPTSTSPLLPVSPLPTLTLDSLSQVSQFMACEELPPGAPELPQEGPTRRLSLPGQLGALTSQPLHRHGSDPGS
smiles,measurement,setting,value
O=C1C(O)=C([C@H]2CC[C@H](c3ccc(Cl)cc3)CC2)C(=O)c2ccccc21 [Atovaquone],IC50,Pf 7G8,2.3 ± 0.7 nM
same,IC50,Pf SB1,> 2000 nM
same,IC50,Pf DD2,2 ± 0.02 nM
same,IC50,Pf K1,2.3 ± 0.8 nM
CCc1nc(N)nc(N)c1-c1ccc(Cl)cc1 [Pyrimethamine],IC50,Pf W2,15.4 ± 2.83 µM
same,IC50,Pf 7G8,10000 ± 1260 nM
same,IC50,Pf SB1,10.8 ± 4 nM
same,IC50,Pf DD2,13800 ± 8620 nM
same,IC50,Pf NF54,28.3 ± 11 nM
same,IC50,Pf K1,8560 ± 1980 nM
CNc1nc(Nc2ccc(OCC(F)(F)F)c(C)n2)ncc1N1CCN[C@H](C)C1 [compound 6],IC50,"Dd2-PfCRT; Plasmodium falciparum, DD2",18.9 ± 1 nM
same,IC50,"Dd2-CYTbQi; Plasmodium falciparum, DD2",25.7 ± 5 nM
same,IC50,Dd2-6R F2 B5,102 nM
same,increase in IC50 compared with the parental Dd2 line,Dd2-6R F2 B5; compound 6-resistant Dd2-6R clones (five clones),3-6 fold and 3 fold
same,IC50,Dd2 [1]; [4],29.5 ± 3 nM
same,IC50,Dd2 [1]; [5],38.7 ± 1.1 nM
same,IC50,Dd2-6R F4 D4,98.9 nM
same,IC50,"Dd2-HSP90; Plasmodium falciparum, DD2",27.9 ± 7 nM
same,IC50,Dd2-6R F2 C5,96.3 nM
same,IC50,Dd2-6R F4 G7,112 nM
same,IC50,"Dd2-DHODH; Plasmodium falciparum, DD2",23.2 ± 5 nM
same,IC50,Dd2-6R F2 D8,95.7 nM
C[C@H]1[C@H](OC(=O)CCC(=O)O)O[C@@H]2O[C@@]3(C)CC[C@H]4[C@H](C)CC[C@@H]1[C@@]24OO3 [Artesunate],IC50,"Dd2-PfCRT; Plasmodium falciparum, DD2",1.84 ± 0.3 nM
same,IC50,"Dd2-CYTbQi; Plasmodium falciparum, DD2",1.26 ± 0.4 nM
same,IC50,Dd2-6R F2 B5,1.6 ± 0.2 nM
same,IC50,Dd2 [1]; [4],1.51 ± 0.2 nM
same,IC50,Dd2 [1]; [5],2.6 ± 1.3 nM
same,IC50,Dd2-6R F4 D4,1.6 ± 0.9 nM
same,IC50,"Dd2-HSP90; Plasmodium falciparum, DD2",1.29 ± 0.2 nM
same,IC50,Dd2-6R F2 C5,1.2 ± 0.1 nM
same,IC50,Dd2-6R F4 G7,1.6 nM
same,IC50,"Dd2-DHODH; Plasmodium falciparum, DD2",1.81 ± 0.3 nM
same,IC50,Dd2-6R F2 D8,1.4 ± 0.1 nM
CCCCN(CCCC)CC(O)c1cc(Cl)cc2c1-c1ccc(Cl)cc1/C2=C/c1ccc(Cl)cc1 (stereo not shown) [Lumefantrine],IC50,Dd2-6R F2 B5,6.8 ± 2 nM
same,IC50,Dd2 [1]; [5],15.6 ± 4.8 nM
same,IC50,Dd2-6R F4 D4,6.4 ± 2.4 nM
same,IC50,Dd2-6R F2 C5,5.7 ± 1 nM
same,IC50,Dd2-6R F4 G7,5.1 nM
same,IC50,Dd2-6R F2 D8,6 ± 1.7 nM
OC(c1cc(C(F)(F)F)nc2c(C(F)(F)F)cccc12)C1CCCCN1 (stereo not shown) [Mefloquine],IC50,Dd2-6R F2 B5,11.7 ± 2.6 nM
same,IC50,Dd2 [1]; [5],30.1 ± 7.2 nM
same,IC50,Dd2-6R F4 D4,11.7 nM
same,IC50,Dd2-6R F2 C5,12.1 nM
same,IC50,Dd2-6R F4 G7,10.7 nM
same,IC50,Dd2-6R F2 D8,12 nM
"Cc1nc(Nc2ncc(N3CCN[C@H](C)C3)c(Nc3cc(C)n(C)n3)n2)ccc1F [compound 7, (R)-N4-(1,5-dimethyl-1H-pyrazol-3-yl)-N2-(5-fluoro-6-methylpyridin-2-yl)-5-(3-methylpiperazin-1-yl)pyrimidine-2,4-diamine]",IC50,[2],66 µM
same,IC50,hERG,> 33 µM
"COc1cc2[nH]c(C)c(-c3ccc(Oc4ccc(OC(F)(F)F)cc4)cc3)c(=O)c2cc1Cl [ELQ-300, reference compound]",IC50,Dd2 bc-1 ELQ-300,125 nM
same,IC50,"Dd2 [3]; Dd2, [3H]-hypoxanthine, read-out: IC50",20 nM
Cc1nc2c(C#N)cccc2n1-c1ccc(C(=O)NC2CC2)s1 [Genz-669178],IC50,"Dd2-PfCRT; Dd2-PfCRT, mean ± SD, read-out: IC50",5.07 ± 4 nM
same,IC50,"Dd2-CYTbQi; Dd2-CYTbQi, mean ± SD, read-out: IC50",9.94 ± 0.9 nM
same,IC50,"Dd2 [1]; Dd2, Supplementary Table 2, read-out: IC50",5.79 ± 1 nM
same,IC50,"Dd2-HSP90; Dd2-HSP90, mean ± SD, read-out: IC50",16.2 ± 2 nM
same,IC50,"Dd2-DHODH; Dd2-DHODH, mean ± SD, read-out: IC50",76.8 ± 10 nM
"Cc1cc(Nc2ccc(S(F)(F)(F)(F)F)cc2)n2nc(C(C)(F)F)nc2n1 [DSM265, reference compound]",IC50,Dd2 DHODH DSM265,48 nM
COC1=C2C[C@@H](C)C[C@H](OC)[C@H](O)[C@@H](C)/C=C(\C)[C@H](OC(N)=O)[C@@H](OC)/C=C\C=C(/C)C(=O)NC(=CC1=O)C2=O [Geldanamycin],IC50,"Dd2-PfCRT; Plasmodium falciparum, DD2",204 ± 20 nM
same,IC50,"Dd2-CYTbQi; Plasmodium falciparum, DD2",169 ± 40 nM
same,IC50,Dd2 [1]; [4],176 ± 30 nM
same,IC50,"Dd2-DHODH; Plasmodium falciparum, DD2",257 ± 40 nM
C[C@@H]1CC[C@H]2[C@@H](C)C(=O)O[C@@H]3O[C@@]4(C)CC[C@@H]1[C@]32OO4 [Artemisinin],IC50,Pf W2,0.0065 ± 0.001 µM
same,IC50,Pf 7G8,1.3 ± 0.1 nM
same,IC50,Pf SB1,16.6 ± 5 nM
same,IC50,Pf DD2,10.3 ± 2 nM
same,IC50,Pf NF54,7 ± 4 nM
same,IC50,Pf K1,6.5 ± 2 nM
"C[C@H]1Cc2c([nH]c3cc(Cl)c(F)cc23)[C@@]2(N1)C(=O)Nc1ccc(Cl)cc12 [NITD609, reference compound]",IC50,"Dd2 [3]; Plasmodium falciparum, DD2",0.6 nM
same,IC50,Dd2 PfATP4 NITD609,1.7 nM
CCN(CC)CCCC(C)Nc1ccnc2cc(Cl)ccc12 (stereo not shown) [Chloroquine],IC50,Pf SB1,11.8 ± 4.5 nM
CCN(CC)Cc1cc(Nc2ccnc3cc(Cl)ccc23)ccc1O [Amodiaquine],IC50,"Dd2-PfCRT; Plasmodium falciparum, DD2",8.86 ± 1 nM
same,IC50,"Dd2-CYTbQi; Plasmodium falciparum, DD2",9.9 ± 3 nM
same,IC50,Dd2 [1]; [4],9.83 ± 0.4 nM
same,IC50,"Dd2-HSP90; Plasmodium falciparum, DD2",8.96 ± 0.8 nM
same,IC50,"Dd2-DHODH; Plasmodium falciparum, DD2",10.7 ± 2 nM
